Measurements reported in BigSolDB 2.1.

O=C(O)CCCCCCCCCCCC(=O)O
solubility (mole fraction)
Details | 283.15 K | 288.15 K | 293.15 K | 298.15 K | 303.15 K | 308.15 K | 313.15 K | 318.15 K | 323.15 K
in acetic acid | – | 0.00231 | 0.00309 | 0.00418 | 0.00656 | 0.00975 | 0.0138 | 0.0201 | 0.0253
in acetone | 0.00192 | 0.00207 | 0.00302 | 0.00409 | 0.00633 | 0.00892 | 0.0128 | 0.0166 | 0.0234
in ethanol | 0.00277 | 0.00286 | 0.00388 | 0.00441 | 0.00674 | 0.0115 | 0.0149 | 0.0207 | 0.0263
in ethyl acetate | 0.00072 | 0.00083 | 0.00111 | 0.00149 | 0.00254 | 0.00361 | 0.00524 | 0.00722 | 0.011
in methanol | 0.00291 | 0.00315 | 0.00388 | 0.00449 | 0.00541 | 0.00845 | 0.0106 | 0.0126 | 0.015
